Paper PMC9598367, “Discovery and Preliminary Structure-Activity Investigation of 3-Substituted-1H-imidazol-5-yl-1H-indoles with In Vitro Activity towards Methicillin-Resistant Staphylococcus aureus” (Antibiotics, 2022)

First: CCCCCn1cncc1-c1c[nH]c2cccc(F)c12
Second: CCCCCn1cncc1-c1c[nH]c2cccc(Cl)c12
The melting point of the first is lower: 147 to 148 °C for the first, 188 to 189 °C for the second.

First: CCCCCn1cncc1-c1c[nH]c2c(F)cccc12
Second: Fc1cccc2c(-c3cncn3CCc3ccccc3)c[nH]c12 [Compound 52, 7-Fluoro-3-(1-phenethyl-1H-imidazol-5-yl)-1H-indole]
The melting point of the first is higher: 164 to 165 °C for the first, 45 to 46 °C for the second.

First: Fc1ccc2[nH]cc(-c3cncn3Cc3ccc(I)cc3)c2c1 [Compound 5, 5-Fluoro-3-(1-(4-iodobenzyl)-1H-imidazol-5-yl)-1H-indole]
Second: COc1ccc(Cn2cncc2-c2c[nH]c3ccc(F)cc23)cc1 [Compound 12, 5-Fluoro-3-(1-(4-methoxybenzyl)-1H-imidazol-5-yl)-1H-indole]
The melting point of the first is higher: 187 to 188 °C for the first, 181 to 182 °C for the second.

First: COc1ccc(Cn2cncc2-c2c[nH]c3cc(F)ccc23)cc1 [Compound 13, 6-Fluoro-3-(1-(4-methoxybenzyl)-1H-imidazol-5-yl)-1H-indole]
Second: COc1ccc(Cn2cncc2-c2c[nH]c3cc(Cl)ccc23)cc1 [Compound 15, 6-Chloro-3-(1-(4-methoxybenzyl)-1H-imidazol-5-yl)-1H-indole]
The melting point of the first is higher: 181 to 182 °C for the first, 178 to 179 °C for the second.

First: COc1ccc(Cn2cncc2-c2c[nH]c3ccc(Cl)cc23)cc1 [Compound 14, 5-Chloro-3-(1-(4-methoxybenzyl)-1H-imidazol-5-yl)-1H-indole]
Second: COc1ccc(Cn2cncc2-c2c[nH]c3ccc(Br)cc23)cc1 [Compound 16, 5-Bromo-3-(1-(4-methoxybenzyl)-1H-imidazol-5-yl)-1H-indole]
The melting point of the first is lower: 193 to 194 °C for the first, 197 to 198 °C for the second.

First: Clc1ccc2c(-c3cncn3CCc3ccccc3)c[nH]c2c1 [Compound 20, 6-Chloro-3-(1-phenethyl-1H-imidazol-5-yl)-1H-indole]
Second: Clc1ccc2[nH]cc(-c3cncn3Cc3ccccc3)c2c1 [Compound 46, 3-(1-Benzyl-1H-imidazol-5-yl)-5-chloro-1H-indole]
The melting point of the first is higher: 91 to 92 °C for the first, 78 to 79 °C for the second.

Compared with `COc1ccc(CCn2cncc2-c2c[nH]c3ccc(F)cc23)cc1` [Compound 24, 5-Fluoro-3-(1-(4-methoxyphenethyl)-1H-imidazol-5-yl)-1H-indole], `COc1ccc(CCn2cncc2-c2c[nH]c3cccc(F)c23)cc1` [Compound 66, 4-Fluoro-3-(1-(4-methoxyphenethyl)-1H-imidazol-5-yl)-1H-indole] is lower in melting point: 152 to 153 °C for the first, 56 to 57 °C for the second.

Compared with `COc1ccc(OC)c(CCn2cncc2-c2c[nH]c3ccc(F)cc23)c1` [Compound 30, 3-(1-(2,5-Dimethoxyphenethyl)-1H-imidazol-5-yl)-5-fluoro-1H-indole], `COc1ccc(OC)c(CCn2cncc2-c2c[nH]c3cc(F)ccc23)c1` [Compound 31, 3-(1-(2,5-Dimethoxyphenethyl)-1H-imidazol-5-yl)-6-fluoro-1H-indole] is lower in melting point: 150 to 151 °C for the first, 130 to 131 °C for the second.

Compared with `COc1ccc(OC)c(CCn2cncc2-c2c[nH]c3cc(Cl)ccc23)c1` [Compound 33, 6-Chloro-3-(1-(2,5-dimethoxyphenethyl)-1H-imidazol-5-yl)-1H-indole], `COc1ccc(OC)c(CCn2cncc2-c2c[nH]c3cc(Br)ccc23)c1` [Compound 35, 6-Bromo-3-(1-(2,5-dimethoxyphenethyl)-1H-imidazol-5-yl)-1H-indole] is higher in melting point: 80 to 81 °C for the first, 133 to 134 °C for the second.

First: c1ccc2c(-c3cncn3CCc3ccc4c(c3)OCO4)c[nH]c2c1 [Compound 36, 3-(1-(2-(Benzo[d][1,3]dioxol-5-yl)ethyl)-1H-imidazol-5-yl)-1H-indole]
Second: Fc1ccc2c(-c3cncn3CCc3ccc4c(c3)OCO4)c[nH]c2c1 [Compound 38, 3-(1-(2-(Benzo[d][1,3]dioxol-5-yl)ethyl)-1H-imidazol-5-yl)-6-fluoro-1H-indole]
The melting point of the first is higher: 195 to 196 °C for the first, 188 to 189 °C for the second.

First: Clc1ccc2c(-c3cncn3CCc3ccc4c(c3)OCO4)c[nH]c2c1 [Compound 40, 3-(1-(2-(Benzo[d][1,3]dioxol-5-yl)ethyl)-1H-imidazol-5-yl)-6-chloro-1H-indole]
Second: Brc1ccc2[nH]cc(-c3cncn3CCc3ccc4c(c3)OCO4)c2c1 [Compound 41, 3-(1-(2-(Benzo[d][1,3]dioxol-5-yl)ethyl)-1H-imidazol-5-yl)-5-bromo-1H-indole]
The melting point of the first is higher: 180 to 181 °C for the first, 176 to 177 °C for the second.

Compared with `Fc1cccc2[nH]cc(-c3cncn3Cc3ccccc3)c12` [Compound 43, 3-(1-Benzyl-1H-imidazol-5-yl)-4-fluoro-1H-indole], `Fc1cccc2[nH]cc(-c3cncn3CCc3ccccc3)c12` [Compound 51, 4-Fluoro-3-(1-phenethyl-1H-imidazol-5-yl)-1H-indole] is higher in melting point: 177 to 178 °C for the first, 181 to 182 °C for the second.

`Fc1cccc2c(-c3cncn3Cc3ccccc3)c[nH]c12` [Compound 44, 3-(1-Benzyl-1H-imidazol-5-yl)-7-fluoro-1H-indole] and `Clc1cccc2c(-c3cncn3Cc3ccccc3)c[nH]c12` [Compound 47, 3-(1-Benzyl-1H-imidazol-5-yl)-7-chloro-1H-indole] fall in the same range of melting point: 179 to 180 °C for the first, 179 to 180 °C for the second.

First: Clc1cccc2[nH]cc(-c3cncn3Cc3ccccc3)c12 [Compound 45, 3-(1-Benzyl-1H-imidazol-5-yl)-4-chloro-1H-indole]
Second: Clc1cccc2[nH]cc(-c3cncn3CCc3ccccc3)c12 [Compound 53, 4-Chloro-3-(1-phenethyl-1H-imidazol-5-yl)-1H-indole]
The melting point of the first is higher: 198 to 199 °C for the first, 73 to 74 °C for the second.

First: Brc1cccc2[nH]cc(-c3cncn3Cc3ccccc3)c12 [Compound 48, 3-(1-Benzyl-1H-imidazol-5-yl)-4-bromo-1H-indole]
Second: Brc1cccc2[nH]cc(-c3cncn3CCc3ccccc3)c12 [Compound 55, 4-Bromo-3-(1-phenethyl-1H-imidazol-5-yl)-1H-indole]
The melting point of the first is lower: 201 to 202 °C for the first, 204 to 205 °C for the second.

First: COc1ccc2[nH]cc(-c3cncn3Cc3ccccc3)c2c1 [Compound 49, 3-(1-Benzyl-1H-imidazol-5-yl)-5-methoxy-1H-indole]
Second: COc1ccc2c(-c3cncn3Cc3ccccc3)c[nH]c2c1 [Compound 50, 3-(1-Benzyl-1H-imidazol-5-yl)-6-methoxy-1H-indole]
The melting point of the first is lower: 65 to 66 °C for the first, 66 to 67 °C for the second.

Compared with `Clc1cccc2c(-c3cncn3CCc3ccccc3)c[nH]c12` [Compound 54, 7-Chloro-3-(1-phenethyl-1H-imidazol-5-yl)-1H-indole], `COc1ccc(CCn2cncc2-c2c[nH]c3c(Cl)cccc23)cc1` [Compound 69, 7-Chloro-3-(1-(4-methoxyphenethyl)-1H-imidazol-5-yl)-1H-indole] is higher in melting point: 47 to 48 °C for the first, 59 to 60 °C for the second.

First: COc1ccc2[nH]cc(-c3cncn3CCc3ccccc3)c2c1 [Compound 56, 5-Methoxy-3-(1-phenethyl-1H-imidazol-5-yl)-1H-indole]
Second: COc1ccc(Cn2cncc2-c2c[nH]c3ccc(OC)cc23)cc1 [Compound 64, 5-Methoxy-3-(1-(4-methoxybenzyl)-1H-imidazol-5-yl)-1H-indole]
The melting point of the first is lower: 51 to 52 °C for the first, 67 to 68 °C for the second.

First: COc1ccc(Cn2cncc2-c2c[nH]c3cccc(F)c23)cc1 [Compound 59, 4-Fluoro-3-(1-(4-methoxybenzyl)-1H-imidazol-5-yl)-1H-indole]
Second: COc1ccc(Cn2cncc2-c2c[nH]c3cccc(Cl)c23)cc1 [Compound 61, 4-Chloro-3-(1-(4-methoxybenzyl)-1H-imidazol-5-yl)-1H-indole]
The melting point of the first is lower: 66 to 67 °C for the first, 74 to 75 °C for the second.

First: COc1ccc(Cn2cncc2-c2c[nH]c3c(F)cccc23)cc1 [Compound 60, 7-Fluoro-3-(1-(4-methoxybenzyl)-1H-imidazol-5-yl)-1H-indole]
Second: COc1ccc(CCn2cncc2-c2c[nH]c3c(F)cccc23)cc1 [Compound 67, 7-Fluoro-3-(1-(4-methoxyphenethyl)-1H-imidazol-5-yl)-1H-indole]
The melting point of the first is higher: 179 to 180 °C for the first, 175 to 176 °C for the second.

First: COc1ccc(Cn2cncc2-c2c[nH]c3c(Cl)cccc23)cc1 [Compound 62, 7-Chloro-3-(1-(4-methoxybenzyl)-1H-imidazol-5-yl)-1H-indole]
Second: COc1ccc(Cn2cncc2-c2c[nH]c3cccc(Br)c23)cc1 [Compound 63, 4-Bromo-3-(1-(4-methoxybenzyl)-1H-imidazol-5-yl)-1H-indole]
The melting point of the first is higher: 220 to 221 °C for the first, 92 to 93 °C for the second.

First: COc1ccc(Cn2cncc2-c2c[nH]c3cc(OC)ccc23)cc1 [Compound 65, 6-Methoxy-3-(1-(4-methoxybenzyl)-1H-imidazol-5-yl)-1H-indole]
Second: COc1ccc(CCn2cncc2-c2c[nH]c3cccc(Cl)c23)cc1 [Compound 68, 4-Chloro-3-(1-(4-methoxyphenethyl)-1H-imidazol-5-yl)-1H-indole]
The melting point of the first is lower: 65 to 66 °C for the first, 76 to 77 °C for the second.

With `COc1ccc(CCn2cncc2-c2c[nH]c3cccc(Br)c23)cc1` [Compound 70, 4-Bromo-3-(1-(4-methoxyphenethyl)-1H-imidazol-5-yl)-1H-indole] the melting point was 83 to 84 °C.

In the case of `Ic1ccc(Cn2cncc2-c2c[nH]c3ccccc23)cc1` [Compound 4, 3-(1-(4-Iodobenzyl)-1H-imidazol-5-yl)-1H-indole], the melting point is reported as > 200 °C.
In the case of `Clc1ccc2[nH]cc(-c3cncn3Cc3ccc(I)cc3)c2c1` [Compound 7, 5-Chloro-3-(1-(4-iodobenzyl)-1H-imidazol-5-yl)-1H-indole], the melting point is reported as > 200 °C.
For `Clc1ccc2c(-c3cncn3Cc3ccc(I)cc3)c[nH]c2c1` [Compound 8, 6-Chloro-3-(1-(4-iodobenzyl)-1H-imidazol-5-yl)-1H-indole], the melting point was > 200 °C.
For `Brc1ccc2c(-c3cncn3Cc3ccc(I)cc3)c[nH]c2c1` [Compound 10, 6-Bromo-3-(1-(4-iodobenzyl)-1H-imidazol-5-yl)-1H-indole], the melting point was > 200 °C.
With `Fc1ccc2[nH]cc(-c3cncn3CCc3ccc4c(c3)OCO4)c2c1` [Compound 37, 3-(1-(2-(Benzo[d][1,3]dioxol-5-yl)ethyl)-1H-imidazol-5-yl)-5-fluoro-1H-indole] the melting point was > 200 °C.
In the case of `Clc1ccc2[nH]cc(-c3cncn3CCc3ccc4c(c3)OCO4)c2c1` [Compound 39, 3-(1-(2-(Benzo[d][1,3]dioxol-5-yl)ethyl)-1H-imidazol-5-yl)-5-chloro-1H-indole], the melting point is reported as > 200 °C.
